Data: patent publication US5877175A, “Pharmaceutical compositions” (KNOLL Aktiengesellschaft, priority 1995, dated 1999)

What was measured:
[1] = tested on: myoclonic seizures induced in mice by the administration of bicuculline; experiment: BICM test: antagonism of myoclonic seizures induced in mice by bicuculline; type: in vivo; conditions: female mice, 1 h before (+)-bicuculline 0.55 mg/kg i.v.; for ED50: Mus musculus, oral, dose inhibiting seizures in 50% of the animals; for % protection from bicuculline-induced seizures: figure in brackets, 100 mg/kg (po)
Excerpt: The ability of the compounds to antagonise the myoclonic seizures induced in mice by the administration of bicuculline was observed. Hereinafter, this test is referred to as "BICM".
In the BICM experiments groups of female mice in the weight range 25 to 30 grammes had free access to food and water until one hour before administration of the compound to be tested. The compound to be tested was orally administered at one or more doses in 1% aqueous methylcellulose solution. One hour later (+)-bicuculline at a dose of 0.55 mg/kg was administered intravenously into a tail vein. Such a dose of (+)-bicuculline would generally be expected to induce a seizure in the mice.
During the following two minutes the animals were observed and the percentage of animals in which seizures had been inhibited was recorded. Thus, the greater the anticonvulsant activity of the compound, the higher was the percentage recorded in the BICM test.
A value for the dose inhibiting the seizures in 50% of the animals (ED50) was calculated from the regression straight line plot of the percentage of animals in which seizures were inhibited against the dose of compound.

[2] = tested on: seizures in mice induced by a maximal electroshock; experiment: MESM test: inhibition of seizures in mice induced by a maximal electroshock; type: in vivo; conditions: male mice, 1 h before electroshock (99 mA, 50 Hz, 1.0 second); for ED50: Mus musculus, oral, dose inhibiting seizures in 50% of the mice; for % protection from MES-induced seizure: figure in brackets, 100 mg/kg (po)
Protocol: The ability of the compounds to inhibit seizures in mice induced by a maximal electroshock was observed. Hereinafter, this test is referred to as `MESM`.
In the MESM experiments, groups of male mice in the weight range 25 to 30 grammes had free access to food and water until the start of the experiment. The mice were divided into two groups, a control group and a test group to which a compound of formula I or II would be administered. The control group received an oral dose of 10 ml/kg of a vehicle of 1% aqueous methyl cellulose solution. […] One hour after administration of all drugs an electroshock of duration 1.0 second was administered to all the mice in both groups through ear clip electrodes moistened with saline. […] Such a shock would generally be expected to induce a seizure in the mice.
The greater the anticonvulsant activity of the compound of formula I or II, the higher was the percentage recorded in the MESM test.
If results at more than one dose were available, then a value for the dose inhibiting seizures in 50% of the mice (ED50) was calculated from the regression straight line plot of the percentage of mice in which seizures were inhibited against the dose of the compound of formula I or II administered.

For CC(C)(C)c1nccc(-c2nn(-c3ccc(F)cc3)ccc2=O)n1 [Example 1, 3-(2-Tert-butylpyrimidin-4-yl)-1-(4-fluorophenyl)pyridazin-4(1H)-one], the ED50 [1] was 4.7 mg/kg.
CC(C)c1nccc(-c2nn(-c3ccc(F)cc3)ccc2=O)n1 [Example 2, 3-(2-isopropylpyrimidin-4-yl)-1-(4-fluorophenyl)pyridazin-4(1H)-one] showed an ED50 [2] of 83.4 mg/kg and an ED50 [1] of 4.6 mg/kg.
O=c1ccn(-c2ccc(F)cc2)nc1-c1ccnc(-c2ccccc2)n1 [Example 3, 3-(2-phenylpyrimidin-4-yl)-1-(4-fluorophenyl)pyridazin-4(1H)-one] was tested, and the “% protection from MES-induced seizure” value [2] was 50%.
For O=c1ccn(-c2ccc(Cl)cc2Cl)nc1-c1ccncn1 [Example 4, 3-(pyrimidin-4-yl)-1-(2,4-dichlorophenyl)pyridazin-4(1H)-one], the ED50 [2] was 73.6 mg/kg and the ED50 [1] was 158 mg/kg.
For CC(C)c1nccc(-c2nn(-c3ccc(Cl)cc3)ccc2=O)n1 [Example 5, 3-(2-isopropylpyrimidin-4-yl)-1-(4-chlorophenyl)pyridazin-4(1H)-one], the “% protection from MES-induced seizure” value [2] was 50% and the ED50 [1] was 11.8 mg/kg.
With O=c1ccn(-c2ccc(Cl)cc2)nc1-c1ccnc(C2CC2)n1 [Example 6, 3-(2-cyclopropylpyrimidin-4-yl)-1-(4-chlorophenyl)pyridazin-4(1H)-one] the “% protection from bicuculline-induced seizures” value [1] was 60%.
In the case of O=c1ccn(-c2ccc(F)cc2)nc1-c1ccnc(C2CCCCC2)n1 [Example 7, 3-(2-cyclohexylpyrimidin-4-yl)-1-(4-fluorophenyl)pyridazin-4(1H)-one], the “% protection from bicuculline-induced seizures” value [1] is reported as 70%.
For O=c1ccn(-c2ccc(Cl)cc2)nc1-c1ccnc(C2CCCCC2)n1 [Example 8, 3-(2-cyclohexylpyrimidin-4-yl)-1-(4-chlorophenyl)pyridazin-4(1H)-one], the ED50 [1] was 12.9 mg/kg.
In the case of CCCc1nccc(-c2nn(-c3ccc(F)cc3)ccc2=O)n1 [Example 9, 3-(2-propylpyrimidin-4-yl)-1-(4-fluorophenyl)pyridazin-4(1H)-one], the “% protection from MES-induced seizure” value [2] is reported as 50%.
